From patent US10457707B2, “Substituted urea depsipeptide analogs as activators of the CLPP endopeptidase” (priority 2015, dated 2019)
In brackets after ≈: the same amount, converted by molar mass. Where two headings read alike, the source gives them in different places. *1 amine or outer side, *2 acyl side, *3 side chain or, on linkers, in order; H or OH if unused. Where a SMILES comes first, the peptide text is derived from it. Bridges are numbered along the chain shown (N, C = ends). [ ]: non-standard residue; d: D form. The star is where a group is joined. ξ: configuration not given here. Phe(3,5-F2) = N[C@@H](Cc1cc(F)cc(F)c1)C(=O)O; NH(4-OCF3-phenyl) = FC(F)(F)Oc1ccc(N*)cc1; Morpholine(3S-CO) = O=C(O)[C@@H]1COCCN1; Pro(4S-Me) = C[C@@H]1CN[C@H](C(=O)O)C1; Pro(4R-Me) = C[C@H]1CN[C@H](C(=O)O)C1; ξPro(4R-OH) = O=C(O)C1C[C@@H](O)CN1; NMeaThr = CN[C@H](C(=O)O)[C@H](C)O; ξPro(4R-Me) = C[C@H]1CNC(C(=O)O)C1; Hyp = O=C(O)[C@@H]1C[C@@H](O)CN1; NMeT = CN[C@H](C(=O)O)[C@@H](C)O; NH(4-Me-phenyl) = Cc1ccc(N*)cc1; aThr = C[C@H](O)[C@H](N)C(=O)O; Pip = O=C(O)[C@@H]1CCCCN1; NMeA = CN[C@@H](C)C(=O)O; X1 = N#Cc1cc(N*)ccc1F; CO = O=C([*:1])[*:2]

Legend:
Type in all cases: cell-based
[1] = Cytotoxicity assay (CellTiter-Glo cell viability, 72 hours); conditions: African green monkey
Outline: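 Viability measured by CellTiter-Glo luminescence after 72-hour compound exposure (serial dilutions, DMSO control) of Vero monolayers seeded at 5000 cells/well in 10% FBS DMEM. IC50 values are the range of two biologically independent experiments, each run in duplicate.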

[2] = test system: Staphylococcus aureus, USA 300 wherein ClpP is inactivated; test: Minimal inhibitory concentration assay
Outline: (§1)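 MIC is the lowest concentration stopping visible growth after overnight aerobic culture at 37 °C, per CLSI microbroth dilution (about 10^5 cfu/mL; two-fold series, top final 200 μM). ClpP-inactivated S. aureus USA 300 tested alongside parent strain to probe ClpP-mediated killing.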

[3] = test system: Staphylococcus aureus, USA 300; test: Minimal inhibitory concentration assay; conditions: USA300, read-out: Minimal Inhibitory Concentrations S. aureus USA 300
Outline: as §1

[4] = test system: Streptococcus pneumoniae, R6; test: Minimal inhibitory concentration assay; conditions: read-out: Minimal Inhibitory Concentrations S. pneumoniae R6
Outline: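 Microbroth dilution with two-fold serial compound dilutions in broth, incubated aerobically overnight at 37° C. MIC taken as the lowest concentration preventing bacterial growth.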

[5] = Vero cells, 72 hours, growth inhibition, read-out: Cytotoxicity IC50

SMILES | IC50 at 72 h [1, 5] | Minimal Inhibitory Concentrations S. aureus USA 300 ΔClpP [2] | MIC [3] | MIC [4] | IC50 at 72 h [1]
Cc1ccc(NC(=O)N[C@@H](Cc2cc(F)cc(F)c2)C(=O)N[C@@H]2C(=O)N3C[C@H](O)CC3C(=O)N(C)[C@@H](C)C(=O)N[C@@H](C)C(=O)N3C[C@H](C)CC3C(=O)O[C@H]2C)cc1 (stereo partly drawn) [Compound 31, (S)-3-(3,5-difluorophenyl)-N-((2S,6S,9S,11aS,13R,17S,18S,20aS)-13-hydroxy-2,6,9,10,18-pentamethyl-5,8,11,16,20-pentaoxohexadecahydro-1H,5H,16H-dipyrrolo[2,1-c:2′,1′-l][1]oxa[4,7,10,13]tetraazacyclohexadecin-17-yl)-2-(3-(p-tolyl)ureido)propanamide] ({NH(4-Me-phenyl)-CO}-[Phe(3,5-F2)][aThr][ξPro(4R-OH)][NMeA]A[ξPro(4R-Me)]; ester 2-C) | > 100 µM | >200 µM | 1.56 µM (≈ 1.24 µg/mL) | 0.195 µM (≈ 0.156 µg/mL) | 
C[C@@H]1C[C@H]2C(=O)O[C@@H](C)[C@H](NC(=O)[C@H](Cc3cc(F)cc(F)c3)NC(=O)Nc3ccc(F)c(C#N)c3)C(=O)N3C[C@H](O)C[C@H]3C(=O)N3CCOC[C@H]3C(=O)N[C@@H](C)C(=O)N2C1 [Compound 326, (S)-2-(3-(3-cyano-4-fluorophenyl)ureido)-3-(3,5-difluorophenyl)-N-((6aS,8R,12S,13S,15aS,17R,21S,23aS)-8-hydroxy-13,17,21-trimethyl-6,11,15,20,23-pentaoxooctadecahydro-6H,11H,15H-[1,4]oxazino[3,4-i]dipyrrolo[2,1-c:2′,1′-l][1]oxa[4,7,10,13]tetraazacyclo-hexadecin-12-yl)propanamide] ({X1-CO}-[Phe(3,5-F2)][aThr][Hyp][Morpholine(3S-CO)]A[Pro(4R-Me)]; ester 2-C) |  | >20 µM | 20 µM (≈ 17.1 µg/mL) | 0.625 µM (≈ 0.534 µg/mL) | > 100 µM
Cc1ccc(NC(=O)N[C@@H](Cc2cc(F)cc(F)c2)C(=O)N[C@H]2COC(=O)[C@@H]3C[C@@H](C)CN3C(=O)[C@H](C)NC(=O)C3CCCCN3C(=O)[C@@H]3C[C@@H](O)CN3C2=O)cc1 (stereo partly drawn) [Compound 323, (S)-3-(3,5-difluorophenyl)-N-((2R,6S,8aR,14aS,16R,20S,23aS)-16-hydroxy-2,6-dimethyl-5,8,14,19,23-pentaoxooctadecahydro-1H,5H,14H,19H-pyrido[2,1-i]dipyrrolo[2,1-c:2′,1′-l][1]oxa[4,7,10,13]tetraazacyclohexadecin-20-yl)-2-(3-(p-tolyl)ureido)propanamide] | > 100 µM | >20 µM | 1.25 µM (≈ 1.01 µg/mL) | 0.078 µM (≈ 0.0632 µg/mL) | 
Cc1ccc(NC(=O)N[C@@H](Cc2cc(F)cc(F)c2)C(=O)N[C@@H]2C(=O)N3CCC[C@H]3C(=O)N(C)[C@@H]([C@@H](C)O)C(=O)N[C@@H](C)C(=O)N3C[C@@H](C)C[C@H]3C(=O)O[C@H]2C)cc1 [Compound 35, (S)-3-(3,5-difluorophenyl)-N-((2S,6S,9S,11aS,17S,18S,20aS)-9-((R)-1-hydroxyethyl)-2,6,10,18-tetramethyl-5,8,11,16,20-pentaoxohexadecahydro-1H,5H,16H-dipyrrolo[2,1-c:2′,1′-l][1]oxa[4,7,10,13]tetraazacyclohexadecin-17-yl)-2-(3-(p-tolyl)ureido)propanamide] ({NH(4-Me-phenyl)-CO}-[Phe(3,5-F2)][aThr]P[NMeT]A[Pro(4S-Me)]; ester 2-C) | 55.7 ± 3.6 µM | 200 µM | 0.2 µM (≈ 0.162 µg/mL) | 0.049 µM (≈ 0.0398 µg/mL) | 
Cc1ccc(NC(=O)N[C@@H](Cc2cc(F)cc(F)c2)C(=O)N[C@@H]2C(=O)N3CCC[C@H]3C(=O)N3CCCC[C@H]3C(=O)N[C@@H](C)C(=O)N3C[C@H](C)C[C@H]3C(=O)O[C@H]2C)cc1 [Compound 209, (S)-3-(3,5-difluorophenyl)-2-(3-(p-tolyl)ureido)-N-((2R,6S,8aS,14aS,20S,21S,23aS)-2,6,21-trimethyl-5,8,14,19,23-pentaoxooctadecahydro-1H,5H,14H,19H-pyrido[2,1-i]dipyrrolo[2,1-c:2′,1′-l][1]oxa[4,7,10,13]tetraazacyclohexadecin-20-yl)propanamide] ({NH(4-Me-phenyl)-CO}-[Phe(3,5-F2)][aThr]P[Pip]A[Pro(4R-Me)]; ester 2-C) | 40 ± 4.1 µM | 100 µM | 0.05 µM (≈ 0.0404 µg/mL) | 0.05 µM (≈ 0.0404 µg/mL) | 
C[C@@H]1C[C@H]2C(=O)O[C@@H](C)[C@H](NC(=O)[C@H](Cc3cc(F)cc(F)c3)NC(=O)Nc3ccc(F)c(C#N)c3)C(=O)N3CCC[C@H]3C(=O)N3CCCC[C@H]3C(=O)N[C@@H](C)C(=O)N2C1 [Compound 324, (S)-2-(3-(3-cyano-4-fluorophenyl)ureido)-3-(3,5-difluorophenyl)-N-((2R,6S,8aS,14aS,20S,21S,23aS)-2,6,21-trimethyl-5,8,14,19,23-pentaoxooctadecahydro-1H,5H,14H,19H-pyrido[2,1-i]dipyrrolo[2,1-c:2′,1′-l][1]oxa[4,7,10,13]tetraazacyclo-hexadecin-20-yl)propanamide] ({X1-CO}-[Phe(3,5-F2)][aThr]P[Pip]A[Pro(4R-Me)]; ester 2-C) |  | >20 µM | 0.625 µM (≈ 0.523 µg/mL) | 0.625 µM (≈ 0.523 µg/mL) | 10.2 ± 0.5 µM
C[C@@H]1C[C@H]2C(=O)OC[C@H](NC(=O)[C@H](Cc3cc(F)cc(F)c3)NC(=O)Nc3ccc4c(c3)OCO4)C(=O)N3C[C@H](O)C[C@H]3C(=O)N3CCCCC3C(=O)N[C@@H](C)C(=O)N2C1 (stereo partly drawn) [Compound 325, (S)-2-(3-(benzo[d][1,3]dioxol-5-yl)ureido)-3-(3,5-difluorophenyl)-N-((2R,6S,8aR,14aS,16R,20S,23aS)-16-hydroxy-2,6-dimethyl-5,8,14,19,23-pentaoxooctadecahydro-1H,5H,14H,19H-pyrido[2,1-i]dipyrrolo[2,1-c:2′,1′-l][1]oxa[4,7,10,13]tetraazacyclo-hexadecin-20-yl)propanamide] |  | >20 µM | 2.5 µM (≈ 2.1 µg/mL) | 0.078 µM (≈ 0.0655 µg/mL) | > 100 µM
Cc1ccc(NC(=O)N[C@@H](Cc2cc(F)cc(F)c2)C(=O)N[C@@H]2C(=O)N3CCC[C@H]3C(=O)N(C)[C@@H]([C@@H](C)O)C(=O)N[C@@H](C)C(=O)N3C[C@H](C)C[C@H]3C(=O)O[C@H]2C)cc1 [Compound 38, (S)-3-(3,5-difluorophenyl)-N-((2R,6S,9S,11aS,17S,18S,20aS)-9-((R)-1-hydroxyethyl)-2,6,10,18-tetramethyl-5,8,11,16,20-pentaoxohexadecahydro-1H,5H,16H-dipyrrolo[2,1-c:2′,1′-l][1]oxa[4,7,10,13]tetraazacyclohexadecin-17-yl)-2-(3-(p-tolyl)ureido)propanamide] ({NH(4-Me-phenyl)-CO}-[Phe(3,5-F2)][aThr]P[NMeT]A[Pro(4R-Me)]; ester 2-C) | 46.1 ± 5.5 µM | 200 µM | 0.1 µM (≈ 0.0812 µg/mL) | 0.02 µM (≈ 0.0162 µg/mL) | 
Cc1ccc(NC(=O)N[C@@H](Cc2cc(F)cc(F)c2)C(=O)N[C@@H]2C(=O)N3CCC[C@H]3C(=O)N3CCOC[C@H]3C(=O)N[C@@H](C)C(=O)N3C[C@H](C)C[C@H]3C(=O)O[C@H]2C)cc1 [Compound 210, (S)-3-(3,5-difluorophenyl)-2-(3-(p-tolyl)ureido)-N-((6aS,12S,13S,15aS,17R,21S,23aS)-13,17,21-trimethyl-6,11,15,20,23-pentaoxooctadecahydro-6H,11H,15H-[1,4]oxazino[3,4-i]dipyrrolo[2,1-c:2′,1′-l][1]oxa[4,7,10,13]tetraazacyclohexadecin-12-yl)propanamide] ({NH(4-Me-phenyl)-CO}-[Phe(3,5-F2)][aThr]P[Morpholine(3S-CO)]A[Pro(4R-Me)]; ester 2-C) | 5.82 ± 0.39 µM | >200 µM | 0.006 µM (≈ 0.00486 µg/mL) | 0.002 µM (≈ 0.00162 µg/mL) | 
C[C@@H]1C[C@H]2C(=O)O[C@@H](C)[C@H](NC(=O)[C@H](Cc3cc(F)cc(F)c3)NC(=O)Nc3ccc(OC(F)(F)F)cc3)C(=O)N3CCC[C@H]3C(=O)N(C)[C@@H]([C@@H](C)O)C(=O)N[C@@H](C)C(=O)N2C1 [Compound 41, (S)-3-(3,5-difluorophenyl)-N-((2R,6S,9S,11aS,17S,18S,20aS)-9-((R)-1-hydroxyethyl)-2,6,10,18-tetramethyl-5,8,11,16,20-pentaoxohexadecahydro-1H,5H,16H-dipyrrolo[2,1-c:2′,1′-l][1]oxa[4,7,10,13]tetraazacyclohexadecin-17-yl)-2-(3-(4-(trifluoromethoxy)phenyl)ureido)propanamide] ({NH(4-OCF3-phenyl)-CO}-[Phe(3,5-F2)][aThr]P[NMeT]A[Pro(4R-Me)]; ester 2-C) |  | 50 µM | 0.02 µM (≈ 0.0176 µg/mL) | 0.02 µM (≈ 0.0176 µg/mL) | 23.9 ± 2 µM
Cc1ccc(NC(=O)N[C@@H](Cc2cc(F)cc(F)c2)C(=O)N[C@@H]2C(=O)N3CCC[C@H]3C(=O)N(C)[C@@H]([C@H](C)O)C(=O)N[C@@H](C)C(=O)N3C[C@H](C)C[C@H]3C(=O)O[C@H]2C)cc1 [Compound 208, (S)-3-(3,5-difluorophenyl)-N-((2R,6S,9S,11aS,17S,18S,20aS)-9-((S)-1-hydroxyethyl)-2,6,10,18-tetramethyl-5,8,11,16,20-pentaoxohexadecahydro-1H,5H,16H-dipyrrolo[2,1-c:2′,1′-l][1]oxa[4,7,10,13]tetraazacyclohexadecin-17-yl)-2-(3-(p-tolyl)ureido)propanamide] ({NH(4-Me-phenyl)-CO}-[Phe(3,5-F2)][aThr]P[NMeaThr]A[Pro(4R-Me)]; ester 2-C) | 46.1 ± 5.5 µM | 200 µM | 0.1 µM (≈ 0.0812 µg/mL) | 0.02 µM (≈ 0.0162 µg/mL) | 
